# Laboratory results from paper PMC4281207, “Dr-FtsA, an Actin Homologue in Deinococcus radiodurans Differentially Affects Dr-FtsZ and Ec-FtsZ Functions In Vitro” (PLoS ONE, 2014).
# Tests used:
# Dr-FtsZ [1] = target: T1, Dr-FtsZ (Deinococcus radiodurans, UniProt Q9RWN5); experiment: malachite green Pi release; [α[…]]-GTP TLC; assay type: biochemical; conditions: PIPES pH 7.5, 50 mM KCl, 2 mM MgCl2, 1 mM GTP (0.5 mM in TLC assay), 37 °C
# T1 construct: 42 kDa
# T1 sequence (Q9RWN5 1-371): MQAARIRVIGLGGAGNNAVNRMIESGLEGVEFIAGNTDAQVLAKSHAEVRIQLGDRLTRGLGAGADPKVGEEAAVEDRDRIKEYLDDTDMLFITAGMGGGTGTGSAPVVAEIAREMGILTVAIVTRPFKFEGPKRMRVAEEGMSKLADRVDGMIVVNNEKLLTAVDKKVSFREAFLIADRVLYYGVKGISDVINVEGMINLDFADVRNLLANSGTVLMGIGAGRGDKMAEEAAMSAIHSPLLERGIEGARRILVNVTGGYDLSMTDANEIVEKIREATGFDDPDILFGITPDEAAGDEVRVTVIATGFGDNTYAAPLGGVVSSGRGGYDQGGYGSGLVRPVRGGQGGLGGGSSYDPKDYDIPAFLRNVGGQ
# Dr-FtsZ [2] = target: T1, Dr-FtsZ; experiment: stimulation of GTPase activity; [α[…]]-GTP TLC; assay type: biochemical; conditions: 0.5 mM ATP, 0.5 mM GTP, 2 mM MgCl2, PIPES pH 7.5, 37 °C; activator, site not known; ATP not hydrolysed
# Dr-FtsA = target: T2, Dr-FtsA (Deinococcus radiodurans, UniProt Q9RWN6); experiment: circular dichroism; transmission electron microscopy of polymers; assay type: binding; conditions: 10 µM ATP (CD) or 1 mM ATP (TEM), 37 °C; 25 mM PIPES pH 7.5, 50 mM KCl, with or without 5 mM MgCl2 (TEM); ATP not hydrolysed
# T2 construct: full-length from pBADDFtsA (pBAD/HisA), expressed in E. coli TOP10; His tag removed; 54 kDa
# T2 sequence (Q9RWN6 1-517): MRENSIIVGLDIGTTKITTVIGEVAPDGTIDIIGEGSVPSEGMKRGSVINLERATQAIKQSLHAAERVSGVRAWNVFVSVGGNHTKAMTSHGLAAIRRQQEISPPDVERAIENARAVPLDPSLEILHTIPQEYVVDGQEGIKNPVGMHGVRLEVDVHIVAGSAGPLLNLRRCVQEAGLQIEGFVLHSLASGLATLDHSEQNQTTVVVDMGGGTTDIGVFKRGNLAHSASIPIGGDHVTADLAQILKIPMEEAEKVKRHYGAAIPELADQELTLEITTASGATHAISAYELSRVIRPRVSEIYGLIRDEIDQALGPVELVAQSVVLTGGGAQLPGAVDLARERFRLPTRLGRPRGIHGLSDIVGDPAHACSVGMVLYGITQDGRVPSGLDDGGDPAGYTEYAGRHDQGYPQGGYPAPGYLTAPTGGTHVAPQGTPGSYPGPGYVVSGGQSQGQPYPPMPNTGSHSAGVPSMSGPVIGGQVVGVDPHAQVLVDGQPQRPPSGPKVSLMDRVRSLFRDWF
SMILES,malachite green Pi release; [α32P]-GTP TLC (Dr-FtsZ [1]),stimulation of GTPase activity; [α32P]-GTP TLC (Dr-FtsZ [2]),circular dichroism; transmission electron microscopy of polymers (Dr-FtsA)
Nc1nc2c(ncn2[C@@H]2O[C@H](COP(=O)(O)OP(=O)(O)OP(=O)(O)O)[C@@H](O)[C@H]2O)c(=O)[nH]1 [GTP],GTPase activity of Dr-FtsZ was stimulated in the presence of Dr-FtsA,–,–
Nc1ncnc2c1ncn2[C@@H]1O[C@H](COP(=O)(O)OP(=O)(O)OP(=O)(O)O)[C@@H](O)[C@H]1O [ATP],–,the GTPase activity of Dr-FtsZ was stimulated in the presence of ATP (Fig. 2C),"had the correct secondary structure assignment, and interacted with ATP in solution"
